Patent US9926302B2, “Heteroaryl substituted heterocyclyl sulfones” (priority 2014, dated 2018)

Target: T1, Human CaV2.2 channels (Homo sapiens, UniProt Q00975)
T1 construct: expressed in transfected cells
Test: Fluorescence assay for CaV2.2 channels using potassium depolarization to induce channel opening (FLIPR, Fluo 4)
Type: cell-based
Conditions: HEK293, 3 μM test compound; alternative assay buffer 30 mM KCl (inactivated channel state); HEK293 cells stably expressing human CaV2.2; read-out: Activity Category: %-Inhib (CaV2.2) @3 μM @30 mM KCl
Description: In the process, the Ca^2+ influx is quantified in the FLIPR assay with the aid of a Ca^2+-sensitive dye (type Fluo-4, Molecular Probes Europe BV, Leiden, the Netherlands) in a fluorescent imaging plate reader (FLIPR 3, Molecular Devices, Sunnyvale, USA), as described hereinafter.
2.1 Fluorescence Assay for CaV2.2 Channels Using Potassium Depolarization to Induce Channel Opening
Human CaV2.2 channels were stably expressed in HEK293 cells together with alpha2-delta and beta subunits of voltage gated calcium channels. In addition, an inwardly rectifying potassium channel (Kir2.3) was stably expressed in these cells to augment control of the cell membrane potential by the concentration of extracellular potassium ions. Raise of the extracellular potassium concentration leads to depolarization of the membrane potential and thus regulates the voltage dependent state of CaV2.2 channels. For preparation, cells were seeded in black poly-D-lysine coated 96-well plates (Becton Dickinson, Biocoat 4640) in 100 μL medium [500 mL DMEM/F-12 plus Glutamax (Invitrogen 31331-093) plus 5.5 mL MEM NEAA 100× (Invitrogen 11140-035) plus 50 mL FBS decomplemented (Invitrogen 10270-106) plus 200 μg/mL Geneticin (Invitrogen 10131-027) plus 50 μg/mL Hygromycin B (Invitrogen 10687-010) plus 2 μg/mL Blasticidin (anti-bl5b Invivo-Gen) plus 0.2 μg/mL Puromycin (A 11138-03)] at a cell density of 30.000 cells per well. Plates were incubated at 37° C. (5% CO2) for 20 to 23 h. On the day of experiment medium was discarded and cells were loaded with Fluo 4 by addition of 100 μL of basic assay buffer (10 mM HEPES, 1 mM KCl, 149 mM NaCl, 0.8 mM CaCl2, 1.7 mM MgCl2, 10 mM Glucose, 0.1% BSA. pH 7.4) containing 2 μM Fluo 4 (Molecular Probes; F-14201), 0.01% pluronic acid (Molecular Probes; P-6866) and 2.5 mM probenecid (Molecular Probes; P36400). Cells were incubated in the dark at 25° C. for 60 min. Then dye containing buffer was discarded and 100 μL basic (1 mM KCl) or alternative (30 mM KCl) assay buffer was added. The alternative assay buffer contained altered concentrations of KCl (30 mM) and NaCl (120 mM) and was used in order to promote the inactivated channel state. After that 25 μL of basic or alternative assay buffer with or without test compound were added and cells were incubated again in the dark at 25° C. for 15 min. Fluorescence intensity was measured on a FLIPR 3 instrument (Molecular Devices Corp., Sunnyvale, Calif.) with excitation at 480 nm and emission at 535 nm. After continuously reading fluorescence for 30 sec, 50 μL of basic assay buffer containing 210 mM KCl (NaCl omitted) were added for depolarization. Peak fluorescent signal intensity was determined and the amplitude of the peak signal, normalized to base line, was used to measure channel inhibition by test compounds.

T1 sequence (P54289 947-1103): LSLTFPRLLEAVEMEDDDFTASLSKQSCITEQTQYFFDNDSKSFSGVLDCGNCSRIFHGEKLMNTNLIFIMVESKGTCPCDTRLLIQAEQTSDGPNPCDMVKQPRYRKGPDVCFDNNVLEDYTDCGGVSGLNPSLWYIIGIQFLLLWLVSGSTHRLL
T1 sequence (P54289 25-946): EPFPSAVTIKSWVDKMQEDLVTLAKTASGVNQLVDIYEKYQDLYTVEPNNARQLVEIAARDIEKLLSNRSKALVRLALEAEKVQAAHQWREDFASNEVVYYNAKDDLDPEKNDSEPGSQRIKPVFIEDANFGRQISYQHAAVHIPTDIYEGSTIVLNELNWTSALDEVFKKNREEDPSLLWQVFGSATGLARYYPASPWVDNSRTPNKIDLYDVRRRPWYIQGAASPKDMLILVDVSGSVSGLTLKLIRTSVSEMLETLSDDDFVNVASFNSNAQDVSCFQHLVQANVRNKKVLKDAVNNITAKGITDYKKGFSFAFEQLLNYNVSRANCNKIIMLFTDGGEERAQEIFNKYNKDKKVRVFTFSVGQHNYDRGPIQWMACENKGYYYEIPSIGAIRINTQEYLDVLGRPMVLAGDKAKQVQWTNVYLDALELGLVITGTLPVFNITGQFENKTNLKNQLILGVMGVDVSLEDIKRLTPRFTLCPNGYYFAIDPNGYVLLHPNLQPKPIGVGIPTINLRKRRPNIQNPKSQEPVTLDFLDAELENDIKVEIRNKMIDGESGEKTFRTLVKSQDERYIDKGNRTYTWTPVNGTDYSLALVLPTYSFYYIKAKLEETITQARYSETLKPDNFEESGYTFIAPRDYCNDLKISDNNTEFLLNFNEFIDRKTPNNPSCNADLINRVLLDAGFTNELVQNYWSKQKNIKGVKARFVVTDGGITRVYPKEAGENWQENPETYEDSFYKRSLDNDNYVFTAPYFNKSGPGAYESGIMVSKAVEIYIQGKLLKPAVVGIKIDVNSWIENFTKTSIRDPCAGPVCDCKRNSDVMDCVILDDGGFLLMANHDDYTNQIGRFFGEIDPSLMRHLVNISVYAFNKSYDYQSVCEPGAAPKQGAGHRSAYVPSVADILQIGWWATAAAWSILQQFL
T1 sequence (P54284 whole entry, further chain): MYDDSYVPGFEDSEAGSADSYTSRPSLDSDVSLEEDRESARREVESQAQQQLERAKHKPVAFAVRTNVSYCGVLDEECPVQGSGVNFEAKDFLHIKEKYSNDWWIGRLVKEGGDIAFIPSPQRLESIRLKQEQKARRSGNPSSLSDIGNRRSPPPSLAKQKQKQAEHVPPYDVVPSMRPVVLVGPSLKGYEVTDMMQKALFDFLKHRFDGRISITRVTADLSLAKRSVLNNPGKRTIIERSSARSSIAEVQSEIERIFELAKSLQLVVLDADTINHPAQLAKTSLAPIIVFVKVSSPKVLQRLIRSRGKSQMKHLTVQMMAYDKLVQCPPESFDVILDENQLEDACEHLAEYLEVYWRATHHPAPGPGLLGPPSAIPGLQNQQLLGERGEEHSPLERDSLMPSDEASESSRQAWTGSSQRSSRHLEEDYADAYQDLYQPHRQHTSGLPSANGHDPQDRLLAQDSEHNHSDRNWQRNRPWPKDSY
T1 sequence (Q00975 whole entry): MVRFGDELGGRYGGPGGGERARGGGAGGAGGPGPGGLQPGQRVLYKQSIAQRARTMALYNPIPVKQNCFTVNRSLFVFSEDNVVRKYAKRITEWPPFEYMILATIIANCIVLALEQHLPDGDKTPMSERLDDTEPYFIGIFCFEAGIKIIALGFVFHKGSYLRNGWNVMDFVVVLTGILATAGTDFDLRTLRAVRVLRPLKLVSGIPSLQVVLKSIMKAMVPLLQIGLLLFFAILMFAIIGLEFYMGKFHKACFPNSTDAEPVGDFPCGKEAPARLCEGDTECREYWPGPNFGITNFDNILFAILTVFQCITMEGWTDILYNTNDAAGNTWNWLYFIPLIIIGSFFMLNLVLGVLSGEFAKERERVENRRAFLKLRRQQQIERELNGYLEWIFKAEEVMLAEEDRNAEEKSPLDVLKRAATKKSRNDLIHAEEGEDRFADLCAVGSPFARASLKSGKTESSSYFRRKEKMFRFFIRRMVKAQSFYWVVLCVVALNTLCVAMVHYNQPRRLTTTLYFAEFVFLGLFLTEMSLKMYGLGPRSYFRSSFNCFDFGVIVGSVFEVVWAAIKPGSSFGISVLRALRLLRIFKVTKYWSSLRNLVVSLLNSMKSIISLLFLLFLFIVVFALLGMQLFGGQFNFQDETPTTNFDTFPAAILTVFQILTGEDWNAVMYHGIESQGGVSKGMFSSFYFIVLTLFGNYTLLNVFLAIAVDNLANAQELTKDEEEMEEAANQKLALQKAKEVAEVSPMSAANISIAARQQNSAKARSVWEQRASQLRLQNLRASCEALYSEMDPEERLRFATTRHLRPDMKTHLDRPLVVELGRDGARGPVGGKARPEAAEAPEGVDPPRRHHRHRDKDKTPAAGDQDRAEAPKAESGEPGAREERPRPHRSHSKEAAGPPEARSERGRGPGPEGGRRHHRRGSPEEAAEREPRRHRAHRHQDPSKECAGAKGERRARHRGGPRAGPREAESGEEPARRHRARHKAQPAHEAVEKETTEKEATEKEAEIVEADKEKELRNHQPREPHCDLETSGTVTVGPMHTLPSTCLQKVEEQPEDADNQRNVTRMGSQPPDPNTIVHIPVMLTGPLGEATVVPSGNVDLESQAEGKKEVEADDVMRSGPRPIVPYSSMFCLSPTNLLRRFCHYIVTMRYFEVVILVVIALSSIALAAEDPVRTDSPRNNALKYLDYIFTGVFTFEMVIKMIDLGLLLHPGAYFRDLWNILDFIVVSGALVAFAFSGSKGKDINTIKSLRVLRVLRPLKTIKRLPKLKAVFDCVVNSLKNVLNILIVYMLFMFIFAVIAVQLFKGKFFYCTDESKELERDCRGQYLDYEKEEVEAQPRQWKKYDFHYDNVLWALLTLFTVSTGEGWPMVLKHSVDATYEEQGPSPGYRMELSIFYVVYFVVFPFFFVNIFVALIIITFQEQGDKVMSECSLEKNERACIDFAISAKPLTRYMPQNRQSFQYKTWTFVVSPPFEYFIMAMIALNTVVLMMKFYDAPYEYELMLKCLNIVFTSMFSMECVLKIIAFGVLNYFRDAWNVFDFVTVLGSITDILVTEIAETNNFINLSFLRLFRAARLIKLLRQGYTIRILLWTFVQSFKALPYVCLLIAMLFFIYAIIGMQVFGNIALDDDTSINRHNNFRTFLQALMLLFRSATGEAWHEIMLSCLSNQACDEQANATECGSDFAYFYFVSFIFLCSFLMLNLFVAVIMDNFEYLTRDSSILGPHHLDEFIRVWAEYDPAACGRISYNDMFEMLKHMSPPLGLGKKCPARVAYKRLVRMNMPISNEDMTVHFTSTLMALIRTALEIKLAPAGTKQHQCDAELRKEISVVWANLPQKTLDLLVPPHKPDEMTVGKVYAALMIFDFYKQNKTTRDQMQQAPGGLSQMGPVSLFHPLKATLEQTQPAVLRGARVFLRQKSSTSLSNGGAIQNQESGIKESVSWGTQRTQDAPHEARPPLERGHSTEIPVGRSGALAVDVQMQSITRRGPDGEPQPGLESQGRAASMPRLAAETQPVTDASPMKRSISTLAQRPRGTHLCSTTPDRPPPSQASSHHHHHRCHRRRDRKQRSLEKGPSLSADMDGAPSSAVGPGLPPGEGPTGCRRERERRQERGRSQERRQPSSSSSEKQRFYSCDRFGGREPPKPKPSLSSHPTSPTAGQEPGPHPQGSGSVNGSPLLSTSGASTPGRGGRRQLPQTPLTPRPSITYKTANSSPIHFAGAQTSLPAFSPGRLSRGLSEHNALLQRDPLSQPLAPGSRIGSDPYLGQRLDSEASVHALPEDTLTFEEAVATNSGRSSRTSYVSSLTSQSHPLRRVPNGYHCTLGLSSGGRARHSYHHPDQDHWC

For `CCC1(S(=O)(=O)c2cccc(C(F)(F)F)c2)CCOC(c2nnc(C(F)(F)F)o2)C1` (racemic) [SC-242, 2-[4-Ethyl-4-[[3-(trifluoromethyl)phenyl]sulfonyl]-tetrahydro-pyran-2-yl]-5-(trifluoromethyl)-[1,3,4]oxadiazole], the inhibition at 3 µM was 40 to 75%.

`COc1cc(OC)c(C2CC(C)(S(=O)(=O)c3cccc(C(F)(F)F)c3)CCO2)cn1` (racemic) [SC-247, 2,4-Dimethoxy-5-[4-methyl-4-[[3-(trifluoromethyl)phenyl]sulfonyl]-tetrahydro-pyran-2-yl]-pyridine] was tested, and the inhibition at 3 µM was 75 to 95%.

In the case of `COc1cc(C)c(C2CC(C)(S(=O)(=O)c3cccc(C(F)(F)F)c3)CCO2)cn1` (racemic) [SC-252, 2-Methoxy-4-methyl-5-[4-methyl-4-[[3-(trifluoromethyl)phenyl]sulfonyl]-tetrahydro-pyran-2-yl]-pyridine], the inhibition at 3 µM is reported as 75 to 95%.

In the case of `COc1cc(F)c(C2CC(C)(S(=O)(=O)c3cccc(C(F)(F)F)c3)CCO2)cn1` (racemic) [SC-259, 4-Fluoro-2-methoxy-5-[4-methyl-4-[[3-(trifluoromethyl)phenyl]sulfonyl]-tetrahydro-pyran-2-yl]-pyridine], the inhibition at 3 µM is reported as greater than 95%.

`CC(C)Oc1ccc(C2CC(C)(S(=O)(=O)c3cccc(C(F)(F)F)c3)CCO2)cn1` (racemic) [SC-302, 2-Isopropoxy-5-[4-methyl-4-[[3-(trifluoromethyl)phenyl]sulfonyl]-tetrahydro-pyran-2-yl]-pyridine] showed an inhibition at 3 µM greater than 95%.

Work on `CCC1(S(=O)(=O)c2cccc(C(F)(F)F)c2)CCOC(c2cccc(C)n2)C1` (racemic) [SC-303, 2-[4-Ethyl-4-[[3-(trifluoromethyl)phenyl]sulfonyl]-tetrahydro-pyran-2-yl]-6-methyl-pyridine] yielded an inhibition at 3 µM of 75 to 95%.

`CC1(S(=O)(=O)c2cccc(C(F)(F)F)c2)CCOC(c2ccc(C(F)(F)F)nc2)C1` (racemic) [SC-306, 5-[4-Methyl-4-[[3-(trifluoromethyl)phenyl]sulfonyl]-tetrahydro-pyran-2-yl]-2-(trifluoromethyl)-pyridine] showed an inhibition at 3 µM greater than 95%.

With `CCC1(S(=O)(=O)c2cccc(C(F)(F)F)c2)CCOC(c2cccnc2C)C1` (racemic) [SC-314, 3-[4-Ethyl-4-[[3-(trifluoromethyl)phenyl]sulfonyl]-tetrahydro-pyran-2-yl]-2-methyl-pyridine] the inhibition at 3 µM was 40 to 75%.

Molecule `CCC1(S(=O)(=O)c2cccc(C(F)(F)F)c2)CCOC(c2ccc(C)nc2C)C1` (racemic) [SC-319, 3-[4-Ethyl-4-[[3-(trifluoromethyl)phenyl]sulfonyl]-tetrahydro-pyran-2-yl]-2,6-dimethyl-pyridine] has an inhibition at 3 µM of 40 to 75%.

For `CC1(S(=O)(=O)c2cccc(C(F)(F)F)c2)CCOC(c2cnc(C3CC3)cn2)C1` (racemic) [SC-328, 2-Cyclopropyl-5-[4-methyl-4-[[3-(trifluoromethyl)phenyl]sulfonyl]-tetrahydro-pyran-2-yl]-pyrazine], the inhibition at 3 µM was greater than 95%.

For `CCC1(S(=O)(=O)c2cccc(C(F)(F)F)c2)CCOC(c2cnc(C3CC3)cn2)C1` (racemic) [SC-333, 2-Cyclopropyl-5-[4-ethyl-4-[[3-(trifluoromethyl)phenyl]sulfonyl]-tetrahydro-pyran-2-yl]-pyrazine], the inhibition at 3 µM was greater than 95%.

`CC1(S(=O)(=O)c2cccc(C(F)(F)F)c2)CCOC(c2ccc(Br)nc2)C1` (racemic) [SC-337, 2-Bromo-5-[4-methyl-4-[[3-(trifluoromethyl)phenyl]sulfonyl]-tetrahydro-pyran-2-yl]-pyridine] gave an inhibition at 3 µM greater than 95%.

For `CC1(S(=O)(=O)c2cccc(C(F)(F)F)c2)CCOC(c2ncc(C(F)(F)F)cc2Cl)C1` (racemic) [SC-340, 3-Chloro-2-(4-methyl-4-((3-(trifluoromethyl)phenyl)sulfonyl)tetrahydro-2H-pyran-2-yl)-5-(trifluoromethyl)pyridine], the inhibition at 3 µM was greater than 95%.

`Cc1cccc(C2CC(S(=O)(=O)c3cccc(C(F)(F)F)c3)CCO2)n1` (racemic) [SC-341, 2-methyl-6-[4-[[3-(trifluoromethyl)phenyl]sulfonyl]-tetrahydro-pyran-2-yl]-pyridine] showed an inhibition at 3 µM of 40 to 75%.

For `Cn1nc(C(F)(F)F)cc1C1CC(C)(S(=O)(=O)c2cccc(C(F)(F)F)c2)CCO1` (racemic) [SC-344, 1-Methyl-5-[4-methyl-4-[[3-(trifluoromethyl)phenyl]sulfonyl]-tetrahydro-pyran-2-yl]-3-(trifluoromethyl)-1H-pyrazole], the inhibition at 3 µM was 75 to 95%.

In the case of `CC1(S(=O)(=O)c2cccc(C(F)(F)F)c2)CCOC(c2ccc(C3CC3)nc2)C1` (racemic) [SC-347, 2-Cyclopropyl-5-[4-methyl-4-[[3-(trifluoromethyl)phenyl]sulfonyl]-tetrahydro-pyran-2-yl]-pyridine], the inhibition at 3 µM is reported as greater than 95%.

In the case of `CC1(S(=O)(=O)c2cccc(C(F)(F)F)c2)CCOC(c2cccc(C(F)(F)F)n2)C1` (racemic) [SC-351, 2-[4-Methyl-4-[[3-(trifluoromethyl)phenyl]sulfonyl]-tetrahydro-pyran-2-yl]-6-(trifluoromethyl)-pyridine], the inhibition at 3 µM is reported as greater than 95%.

In the case of `CC1(S(=O)(=O)c2cccc(C(F)(F)F)c2)CCOC(c2ccc(N3CCCC3)nc2)C1` (racemic) [SC-406, 5-[4-Methyl-4-[[3-(trifluoromethyl)phenyl]sulfonyl]-tetrahydro-pyran-2-yl]-2-pyrrolidin-1-yl-pyridine], the inhibition at 3 µM is reported as greater than 95%.

`CC1(S(=O)(=O)c2cccc(C(F)(F)F)c2)CCOC(c2ccc(-n3cncn3)nc2)C1` (racemic) [SC-407, 5-[4-Methyl-4-[[3-(trifluoromethyl)phenyl]sulfonyl]-tetrahydro-pyran-2-yl]-2-(1H-[1,2,4]triazol-1-yl)-pyridine] was tested, and the inhibition at 3 µM was 75 to 95%.

In the case of `CNc1ccc(C2CC(C)(S(=O)(=O)c3cccc(C(F)(F)F)c3)CCO2)cn1` (racemic) [SC-412, Methyl-[5-[4-methyl-4-[[3-(trifluoromethyl)phenyl]sulfonyl]-tetrahydro-pyran-2-yl]-pyridin-2-yl]-amine], the inhibition at 3 µM is reported as 75 to 95%.

Work on `CC1(S(=O)(=O)c2cccc(C(F)(F)F)c2)CCOC(c2ccc(OC(F)F)nc2)C1` (racemic) [SC-417, 2-(Difluoro-methoxy)-5-[4-methyl-4-[[3-(trifluoromethyl)phenyl]sulfonyl]-tetrahydro-pyran-2-yl]-pyridine] yielded an inhibition at 3 µM greater than 95%.

`COCCOc1ccc(C2CC(C)(S(=O)(=O)c3cccc(C(F)(F)F)c3)CCO2)cn1` (racemic) [SC-420, 2-(2-Methoxy-ethoxy)-5-[4-methyl-4-[[3-(trifluoromethyl)phenyl]sulfonyl]-tetrahydro-pyran-2-yl]-pyridine] showed an inhibition at 3 µM of 75 to 95%.

Molecule `Cn1nc(S(C)(=O)=O)cc1C1CC(C)(S(=O)(=O)c2cccc(C(F)(F)F)c2)CCO1` (racemic) [SC-433, 1-Methyl-3-methylsulfonyl-5-[4-methyl-4-[[3-(trifluoromethyl)phenyl]sulfonyl]-tetrahydro-pyran-2-yl]-1H-pyrazole] has an inhibition at 3 µM of 40 to 75%.

`Cn1nc(C2CC2)cc1C1CC(C)(S(=O)(=O)c2cccc(C(F)(F)F)c2)CCO1` (racemic) [SC-434, 3-Cyclopropyl-1-methyl-5-[4-methyl-4-[[3-(trifluoromethyl)phenyl]sulfonyl]-tetrahydro-pyran-2-yl]-1H-pyrazole] was tested, and the inhibition at 3 µM was 75 to 95%.

For `CC1(S(=O)(=O)c2cccc(C(F)(F)F)c2)CCOC(c2ncc(C3CC3)cc2Cl)C1` (racemic) [SC-435, 3-Chloro-5-cyclopropyl-2-[4-methyl-4-[[3-(trifluoromethyl)phenyl]sulfonyl]-tetrahydro-pyran-2-yl]-pyridine], the inhibition at 3 µM was greater than 95%.

`CC1(S(=O)(=O)c2cccc(C(F)(F)F)c2)CCOC(c2ncc(OC(F)F)cc2Cl)C1` (racemic) [SC-438, 3-Chloro-5-(difluoro-methoxy)-2-[4-methyl-4-[[3-(trifluoromethyl)phenyl]sulfonyl]-tetrahydro-pyran-2-yl]-pyridine] showed an inhibition at 3 µM greater than 95%.

Molecule `Cc1cc(S(C)(=O)=O)cnc1C1CC(C)(S(=O)(=O)c2cccc(C(F)(F)F)c2)CCO1` (racemic) [SC-441, 3-Methyl-5-methylsulfonyl-2-[4-methyl-4-[[3-(trifluoromethyl)phenyl]sulfonyl]-tetrahydro-pyran-2-yl]-pyridine] has an inhibition at 3 µM of 75 to 95%.
